Literature values, collected in PMC9762682, “Tocotrienols: Exciting Biological and Pharmacological Properties of Tocotrienols and Naturally Occurring Compounds, Part II” (Annals of clinical case reports, 2022).
Counter-ions that a name gives are not always drawn. Values belong to the molecule of their own block, whether it stands above or below them.

Experiments:
Hela cells = tested on: Hela cells; design: method as in PMID 29606130; value at effective dose: unit not given here; conditions: for effective dose / percentage of control at effective dose / value at effective dose: 48 h;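 as to IC50: anti-proliferation of cancer cells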
Liver cancer cells = tested on: Liver cancer cells; design: method as in PMID 29606130; value at effective dose: unit not given here; conditions: for effective dose / percentage of control at effective dose / value at effective dose: 48 h
Pancreas cancer cells = tested on: Pancreas cancer cells; design: method as in PMID 29606130; value at effective dose: unit not given here; conditions: for effective dose / percentage of control at effective dose / value at effective dose: 48 h
Prostate cancer cells = tested on: Prostate cancer cells; design: method as in PMID 29606130; value at effective dose: scale not given here; conditions: for effective dose / percentage of control at effective dose / value at effective dose: 48 h;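 as to IC50: anti-proliferation of cancer cells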
Breast cancer cells = tested on: Breast cancer cells; design: method as in PMID 29606130; value at effective dose: unit not given here;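 as to IC50: anti-proliferation of cancer cells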
Lung cancer cells = tested on: Lung cancer cells; design: method as in PMID 29606130; value at effective dose: unit not given here
Melanoma cells = tested on: Melanoma cells; design: method as in PMID 29606130
B-Lymphocyte cells = tested on: B-Lymphocyte cells; design: method as in PMID 29606130; value at effective dose: unit not given here;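 as to IC50: anti-proliferation of cancer cells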
T-cells (Jurkat) = tested on: T-cells (Jurkat); design: method as in PMID 29606130; value at effective dose: unit not given here

Structure (SMILES): COc1cc2c(cc1O)CC[C@@H]1[C@@H]2CC[C@]2(C)[C@@H](O)CC[C@@H]12 [2-Methoxyestradiol]
IC50 (Hela cells): 2.5 µM
percentage of control at IC50 dose (Hela cells): 48%
effective dose (Hela cells): 20 µM
percentage of control at effective dose (Hela cells): 13%
value at effective dose (Hela cells): 4.3 ± 1.5
IC50 (Liver cancer cells): 5 µM
percentage of control at IC50 dose (Liver cancer cells): 45%
effective dose (Liver cancer cells): 10 µM
percentage of control at effective dose (Liver cancer cells): 27%
value at effective dose (Liver cancer cells): 19.7 ± 2.1
IC50 (Pancreas cancer cells): 40 µM
percentage of control at IC50 dose (Pancreas cancer cells): 42%
effective dose (Pancreas cancer cells): 40 µM
percentage of control at effective dose (Pancreas cancer cells): 42%
value at effective dose (Pancreas cancer cells): 20.0 ± 2.0
percentage of control at IC50 dose (Prostate cancer cells): 39%
effective dose (Prostate cancer cells): 10 µM
percentage of control at effective dose (Prostate cancer cells): 30%
value at effective dose (Prostate cancer cells): 1.7 ± 1.5
IC50 (Breast cancer cells): 10 µM
effective dose (Breast cancer cells): 20 µM
percentage of control at IC50 dose (Breast cancer cells): 45%
percentage of control at effective dose (Breast cancer cells): 44%
value at effective dose (Breast cancer cells): 8.0 ± 2.0
effective dose (Lung cancer cells): 10 µM
percentage of control at IC50 dose (Lung cancer cells): 17%
percentage of control at effective dose (Lung cancer cells): 11%
value at effective dose (Lung cancer cells): 2.3 ± 1.5
effective dose (Melanoma cells): 10 µM
percentage of control at IC50 dose (Melanoma cells): 25%
percentage of control at effective dose (Melanoma cells): 11%
effective dose (B-Lymphocyte cells): 5 µM
percentage of control at IC50 dose (B-Lymphocyte cells): 5%
percentage of control at effective dose (B-Lymphocyte cells): 33%
value at effective dose (B-Lymphocyte cells): 4.0 ± 2.0
effective dose (T-cells (Jurkat)): 5 µM
percentage of control at IC50 dose (T-cells (Jurkat)): 8%
percentage of control at effective dose (T-cells (Jurkat)): 8%
value at effective dose (T-cells (Jurkat)): 31.3 ± 5.7

Structure (SMILES): O=C1C[C@@H]2[C@@H](CO)[C@H](O)C[C@@H]2O1 [(−) Corey Lactone]
effective dose (Hela cells): 80 µM
percentage of control at effective dose (Hela cells): 66%
value at effective dose (Hela cells): 36.0 ± 5.6
IC50 (Liver cancer cells): 80 µM
percentage of control at IC50 dose (Liver cancer cells): 56%
effective dose (Liver cancer cells): 80 µM
percentage of control at effective dose (Liver cancer cells): 56%
value at effective dose (Liver cancer cells): 31.7 ± 2.1
IC50 (Pancreas cancer cells): 80 µM
percentage of control at IC50 dose (Pancreas cancer cells): 54%
effective dose (Pancreas cancer cells): 40 µM
percentage of control at effective dose (Pancreas cancer cells): 58%
value at effective dose (Pancreas cancer cells): 30.7 ± 1.2
IC50 (Prostate cancer cells): 80 µM
percentage of control at IC50 dose (Prostate cancer cells): 51%
effective dose (Prostate cancer cells): 40 µM
percentage of control at effective dose (Prostate cancer cells): 60%
value at effective dose (Prostate cancer cells): 23.3 ± 2.1
IC50 (Breast cancer cells): 80 µM
effective dose (Breast cancer cells): 40 µM
percentage of control at IC50 dose (Breast cancer cells): 55%
percentage of control at effective dose (Breast cancer cells): 77%
value at effective dose (Breast cancer cells): 17.7 ± 3.2
IC50 (Lung cancer cells): 80 µM
effective dose (Lung cancer cells): 40 µM
percentage of control at IC50 dose (Lung cancer cells): 44%
percentage of control at effective dose (Lung cancer cells): 64%
value at effective dose (Lung cancer cells): 17.3 ± 3.8
IC50 (Melanoma cells): 80 µM
effective dose (Melanoma cells): 40 µM
percentage of control at IC50 dose (Melanoma cells): 46%
percentage of control at effective dose (Melanoma cells): 62%
IC50 (B-Lymphocyte cells): 40 µM
effective dose (B-Lymphocyte cells): 20 µM
percentage of control at IC50 dose (B-Lymphocyte cells): 37%
percentage of control at effective dose (B-Lymphocyte cells): 59%
value at effective dose (B-Lymphocyte cells): 5.3 ± 1.5
IC50 (T-cells (Jurkat)): 80 µM
effective dose (T-cells (Jurkat)): 40 µM
percentage of control at IC50 dose (T-cells (Jurkat)): 29%
percentage of control at effective dose (T-cells (Jurkat)): 64%
value at effective dose (T-cells (Jurkat)): 280.3 ± 10.2

Structure (SMILES): N=C(N)NC(=O)c1nc(Cl)c(N)nc1N [Amiloride-HCL]
IC50 (Hela cells): 10 µM
percentage of control at IC50 dose (Hela cells): 51%
effective dose (Hela cells): 80 µM
percentage of control at effective dose (Hela cells): 36%
value at effective dose (Hela cells): 19.7 ± 1.5
percentage of control at IC50 dose (Liver cancer cells): 56%
effective dose (Liver cancer cells): 40 µM
percentage of control at effective dose (Liver cancer cells): 65%
value at effective dose (Liver cancer cells): 36.7 ± 2.5
effective dose (Pancreas cancer cells): 80 µM
percentage of control at effective dose (Pancreas cancer cells): 69%
value at effective dose (Pancreas cancer cells): 30.7 ± 1.2
effective dose (Prostate cancer cells): 80 µM
percentage of control at effective dose (Prostate cancer cells): 70%
value at effective dose (Prostate cancer cells): 27.0 ± 4.6
IC50 (Breast cancer cells): 40 µM
effective dose (Breast cancer cells): 20 µM
percentage of control at IC50 dose (Breast cancer cells): 52%
percentage of control at effective dose (Breast cancer cells): 61%
value at effective dose (Breast cancer cells): 14.0 ± 5.3
effective dose (Lung cancer cells): 40 µM
percentage of control at effective dose (Lung cancer cells): 86%
value at effective dose (Lung cancer cells): 23.3 ± 2.5
effective dose (Melanoma cells): 40 µM
percentage of control at effective dose (Melanoma cells): 90%
IC50 (B-Lymphocyte cells): 40 µM
effective dose (B-Lymphocyte cells): 20 µM
percentage of control at IC50 dose (B-Lymphocyte cells): 48%
percentage of control at effective dose (B-Lymphocyte cells): 56%
value at effective dose (B-Lymphocyte cells): 5.0 ± 1.0
effective dose (T-cells (Jurkat)): 20 µM
percentage of control at effective dose (T-cells (Jurkat)): 38%
value at effective dose (T-cells (Jurkat)): 132.7 ± 2.1

Structure (SMILES): CC1(C)S[C@@H]2[C@H](NC(=O)[C@H](N)c3ccccc3)C(=O)N2[C@H]1C(=O)O [Ampicillin]
effective dose (Hela cells): 80 µM
percentage of control at effective dose (Hela cells): 88%
value at effective dose (Hela cells): 47.7 ± 5.5
effective dose (Liver cancer cells): 40 µM
percentage of control at effective dose (Liver cancer cells): 88%
value at effective dose (Liver cancer cells): 70.3 ± 4.2
effective dose (Pancreas cancer cells): 80 µM
percentage of control at effective dose (Pancreas cancer cells): 74%
value at effective dose (Pancreas cancer cells): 35.3 ± 5.0
IC50 (Prostate cancer cells): 5 µM
percentage of control at IC50 dose (Prostate cancer cells): 50%
effective dose (Prostate cancer cells): 20 µM
percentage of control at effective dose (Prostate cancer cells): 41%
value at effective dose (Prostate cancer cells): 15.0 ± 1.0
effective dose (Breast cancer cells): 40 µM
percentage of control at effective dose (Breast cancer cells): 74%
value at effective dose (Breast cancer cells): 16.7 ± 6.1
effective dose (Lung cancer cells): 80 µM
percentage of control at effective dose (Lung cancer cells): 85%
value at effective dose (Lung cancer cells): 21.3 ± 1.5
effective dose (Melanoma cells): 20 µM
percentage of control at effective dose (Melanoma cells): 70%
effective dose (B-Lymphocyte cells): 10 µM
percentage of control at effective dose (B-Lymphocyte cells): 66%
value at effective dose (B-Lymphocyte cells): 44.7 ± 5.1
effective dose (T-cells (Jurkat)): 20 µM
percentage of control at effective dose (T-cells (Jurkat)): 94%
value at effective dose (T-cells (Jurkat)): 450.3 ± 15.6

Now from value to molecule, other results behind:

IC50 (Lung cancer cells): 10 µM
percentage of control at IC50 dose (Lung cancer cells): 49%
Structure (SMILES): O=C1O[C@H]([C@@H](O)CO)C(O)=C1O [Ascorbic Acid]
effective dose (Hela cells): 80 µM
percentage of control at effective dose (Hela cells): 64%
value at effective dose (Hela cells): 21.0 ± 0.1
effective dose (Liver cancer cells): 80 µM
percentage of control at effective dose (Liver cancer cells): 90%
value at effective dose (Liver cancer cells): 74.3 ± 2.5
effective dose (Pancreas cancer cells): 80 µM
percentage of control at effective dose (Pancreas cancer cells): 71%
value at effective dose (Pancreas cancer cells): 42.3 ± 2.5
effective dose (Prostate cancer cells): 80 µM
percentage of control at effective dose (Prostate cancer cells): 81%
value at effective dose (Prostate cancer cells): 29.3 ± 2.1
effective dose (Breast cancer cells): 40 µM
percentage of control at effective dose (Breast cancer cells): 73%
value at effective dose (Breast cancer cells): 15.0 ± 1.7
effective dose (Lung cancer cells): 20 µM
percentage of control at effective dose (Lung cancer cells): 46%
value at effective dose (Lung cancer cells): 15.0 ± 4.4
effective dose (Melanoma cells): 80 µM
percentage of control at effective dose (Melanoma cells): 81%
effective dose (B-Lymphocyte cells): 20 µM
percentage of control at effective dose (B-Lymphocyte cells): 62%
value at effective dose (B-Lymphocyte cells): 17.3 ± 2.5
effective dose (T-cells (Jurkat)): 40 µM
percentage of control at effective dose (T-cells (Jurkat)): 89%
value at effective dose (T-cells (Jurkat)): 451.3 ± 32.4

IC50 (Hela cells): 20 µM
percentage of control at IC50 dose (Hela cells): 54%
IC50 (Prostate cancer cells): 2.5 µM
percentage of control at IC50 dose (Prostate cancer cells): 45%
IC50 (Lung cancer cells): 2.5 µM
percentage of control at IC50 dose (Lung cancer cells): 47%
IC50 (B-Lymphocyte cells): 5 µM
percentage of control at IC50 dose (B-Lymphocyte cells): 45%
Structure (SMILES): C[C@@H]1C[C@H]2[C@@H]3CCC4=CC(=O)C=C[C@]4(C)[C@@]3(F)[C@@H](O)C[C@]2(C)[C@@]1(O)C(=O)CO [Dexamethasone]
effective dose (Hela cells): 80 µM
percentage of control at effective dose (Hela cells): 53%
value at effective dose (Hela cells): 18.0 ± 4.0
effective dose (Liver cancer cells): 80 µM
percentage of control at effective dose (Liver cancer cells): 93%
value at effective dose (Liver cancer cells): 67.3 ± 4.0
effective dose (Pancreas cancer cells): 20 µM
percentage of control at effective dose (Pancreas cancer cells): 73%
value at effective dose (Pancreas cancer cells): 34.7 ± 4.0
effective dose (Prostate cancer cells): 20 µM
percentage of control at effective dose (Prostate cancer cells): 32%
value at effective dose (Prostate cancer cells): 16.7 ± 1.5
effective dose (Breast cancer cells): 80 µM
percentage of control at effective dose (Breast cancer cells): 85%
value at effective dose (Breast cancer cells): 15.7 ± 3.1
effective dose (Lung cancer cells): 20 µM
percentage of control at effective dose (Lung cancer cells): 76%
value at effective dose (Lung cancer cells): 16.7 ± 2.1
effective dose (Melanoma cells): 40 µM
percentage of control at effective dose (Melanoma cells): 74%
effective dose (B-Lymphocyte cells): 10 µM
percentage of control at effective dose (B-Lymphocyte cells): 41%
value at effective dose (B-Lymphocyte cells): 61.0 ± 3.6
effective dose (T-cells (Jurkat)): 40 µM
percentage of control at effective dose (T-cells (Jurkat)): 71%
value at effective dose (T-cells (Jurkat)): 282.0 ± 21.7
